From patent US7767789B2, “Truncated proteins as cancer markers” (University Hopitals of Cleveland, priority 2005, dated 2010)

How the values were obtained:
MDCK-P2X7 cells = assay: Apoptosis, Cell Death Detection ELISA-PLUS, MDCK cells; format: cell-based, canine; settings: doxycycline treated MDCK-P2X7 cells; BzATP 50 micromolar
Description: (§1) Baseline and BzATP-induced apoptosis in MDCK cells and in HEK-293 cells expressing P2X7 and P2X7-j proteins were studied. FIG. 17. […] Cells were treated with BzATP (50 micromolar) to activate the P2X7 receptors. Apoptosis was quantified using Cell Death Detection ELISA-PLUS photometric enzyme-immunoassay that determines cytoplasmic histone-associated-DNA-fragments (mono and oligonucleosomes) after spontaneous or induced cell death (Roche, Cat. No. 1774425, 96 tests). […] Expression of the P2X7-j proteins either had no effect (HEK-293 cells) or may have decreased apoptosis (MDCK cells).

HeLa cells = assay: Cell selection: growth with BzATP and immunoblot of P2X7/P2X7-j protein, HeLa; format: cell-based, human; settings: 50 micromolar BzATP, seven days
Description: Growth of various cell lines expressing P2X7 and/or P2X7-j in the presence or absence of BzATP was performed to determine how P2X7 receptors may affect cell selection over time. FIG. 23. HEK-293 cells expressing P2X7, HEK-293 cells expressing P2X7-j, or HeLa cells, which express both P2X7 and P2X7-j were separately grown in culture, in the presence or absence of 50 micromolar BzATP for seven (7) days. At various time points, samples of the cells were taken and examined for expression of P2X7 and/or P2X7-j protein by immunoblotting using a P2X7-specific antibody. This antibody was obtained from Alomone Labs (Jerusalem, Israel) and was reactive with the extracellular domain of P2X7 protein. Amino acids 136-152 of the mouse P2X7 receptor ([…]; (SEQ ID NO:7)) were used as the antigen to prepare the antibody. A labeled secondary antibody was used to visualize reactive protein bands. By layering equal amounts of total protein (15 micrograms) it was possible to compare the relative expression of the P2X7 and/or P2X7-j proteins by the cells.

[1] = target: T1, P2X7 channel (HEK-293 cells expressing P2X7 or P2X7-j) (Homo sapiens, UniProt Q99572, R270H/Y155H); format: cell-based; settings: HEK-293-P2X7 cells; 100 micromolar BzATP
T1 construct: expressed in transfected cells; host or cells: HEK-293
T1 sequence (Q99572 whole entry Y155H/R270H): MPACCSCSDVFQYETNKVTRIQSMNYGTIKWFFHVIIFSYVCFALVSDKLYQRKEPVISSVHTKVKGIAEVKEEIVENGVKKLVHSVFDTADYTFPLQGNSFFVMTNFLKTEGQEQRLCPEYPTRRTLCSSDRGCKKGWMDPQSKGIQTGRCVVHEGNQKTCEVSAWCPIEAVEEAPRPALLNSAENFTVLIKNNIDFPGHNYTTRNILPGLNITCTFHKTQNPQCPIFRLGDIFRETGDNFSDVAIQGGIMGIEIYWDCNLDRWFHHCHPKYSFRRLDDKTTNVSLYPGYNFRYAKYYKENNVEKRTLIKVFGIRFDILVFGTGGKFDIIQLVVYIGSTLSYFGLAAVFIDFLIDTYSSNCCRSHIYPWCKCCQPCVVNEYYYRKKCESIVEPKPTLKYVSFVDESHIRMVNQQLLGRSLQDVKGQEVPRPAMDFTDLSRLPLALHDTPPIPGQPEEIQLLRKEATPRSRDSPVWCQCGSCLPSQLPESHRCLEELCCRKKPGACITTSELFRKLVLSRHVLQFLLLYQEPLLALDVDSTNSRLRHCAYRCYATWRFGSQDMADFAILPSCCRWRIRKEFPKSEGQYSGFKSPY

[2] = system: P2X7 channel (HEK-293 cells expressing P2X7 or P2X7-j); format: cell-based, human; settings: P2X7 plus P2X7-j HEK-293 cells compared to P2X7 HEK-293 cells
[3] = target: T2, P2X7 channel (HEK-293 cells expressing P2X7 or P2X7-j) (Homo sapiens, UniProt Q99572, Y155H); format: cell-based; settings: HEK-293-P2X7-j cells compared to HEK-293-P2X7 cells
T2 construct: expressed in transfected cells; host or cells: HEK-293
T2 sequence (Q99572 1-258 isoform Q99572-9 Y155H): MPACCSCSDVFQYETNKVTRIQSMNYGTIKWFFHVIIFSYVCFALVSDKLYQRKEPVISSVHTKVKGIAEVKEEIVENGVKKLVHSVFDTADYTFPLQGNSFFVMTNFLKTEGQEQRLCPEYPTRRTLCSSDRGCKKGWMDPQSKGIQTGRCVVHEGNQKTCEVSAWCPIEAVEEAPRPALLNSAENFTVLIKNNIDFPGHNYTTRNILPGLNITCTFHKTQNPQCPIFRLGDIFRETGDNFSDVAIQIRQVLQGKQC

HEK-293-P2X7 cells = assay: Apoptosis, Cell Death Detection ELISA-PLUS, HEK-293 cells; format: cell-based, human; settings: BzATP 50 micromolar
Description: as §1

[4] = target: T3, P2X7 channel (MDCK cells expressing P2X7 or P2X7-j) (Homo sapiens, UniProt Q99572, Y155H); assay: BzATP-stimulated channel activation (Fluo-4 calcium), MDCK cells; format: cell-based; settings: MDCK-P2X7-j cells compared to MDCK-P2X7 cells
T3 construct: expressed in transfected cells; host or cells: MDCK (canine kidney), doxycycline-inducible promoter
T3 sequence (Q99572 1-258 isoform Q99572-9 Y155H): as above
Description: (§2) 2′-3′-O-(4-benzoyl-benzoyl)adenosine 5′-triphosphate (BzATP) stimulated channel activation of P2X7 and P2X7-j was determined. FIG. 11. As discussed earlier, activation of P2X7 receptors provides influx of selected cations through the ATP-activated channel provided by the P2X7 protein. MDCK or HEK-293 cells expressing either P2X7 or P2X7-j were loaded with the calcium-sensitive dye Fluo-4 and treated with 100 micromolar of BzATP. Calcium entry into the cells via the P2X7 channel after BzATP activation was measured in terms of changes in Fluo-4 fluorescence.
(§3) A quantification of the changes in cytosolic calcium after BzATP exposure provided data that was similar to that presented in FIG. 11. FIG. 12.

[5] = target: T4, P2X7 channel (MDCK cells expressing P2X7 or P2X7-j) (Homo sapiens, UniProt Q99572, R270H/Y155H); assay: as above; format: cell-based; settings: MDCK-P2X7 cells; 100 micromolar BzATP
T4 construct: expressed in transfected cells; host or cells: MDCK (canine kidney), doxycycline-inducible promoter
T4 sequence (Q99572 whole entry Y155H/R270H): as the sequence (Q99572 whole entry Y155H/R270H) above
Description: as §2, §3

[6] = system: HEK-293 cells (wild-type, expressing P2X7 or P2X7-j); assay: Cell-number index of HEK-293 cells grown in culture; format: cell-based, human; settings: 100 micromolar BzATP
Description: Alterations in cell number for HEK-293 cells, HEK-293 cells expressing P2X7-RFL, and HEK-293 cells expressing P2X7-RTR grown in culture were studied. FIG. 15A. The three cells lines were grown in culture and viable cells were counted for a period of 3 days. The data are presented as cell number index versus days in culture. […] For example, a P2X7-RFL receptor protein may facilitate cellular apoptosis (infra).
The cell number of wild-type HEK-293 cells and of HEK-293 cells expressing P2X7-j protein increased to a greater degree than that of HEK-293 cells expressing the P2X7 protein. FIG. 15A.

[7] = target: T5, full-length human P2X7 receptor (HEK-293-hP2X7-R cells) (Homo sapiens, UniProt Q99572); assay: Cytosolic calcium in HEK-293-hP2X7-R and wild-type HEK293 cells on filters; format: cell-based
T5 construct: For transfections, the full length human P2X7 receptor; expressed in transfected cells; host or cells: HEK-293, pcDNA-6 vector
T5 sequence (Q99572 1-595): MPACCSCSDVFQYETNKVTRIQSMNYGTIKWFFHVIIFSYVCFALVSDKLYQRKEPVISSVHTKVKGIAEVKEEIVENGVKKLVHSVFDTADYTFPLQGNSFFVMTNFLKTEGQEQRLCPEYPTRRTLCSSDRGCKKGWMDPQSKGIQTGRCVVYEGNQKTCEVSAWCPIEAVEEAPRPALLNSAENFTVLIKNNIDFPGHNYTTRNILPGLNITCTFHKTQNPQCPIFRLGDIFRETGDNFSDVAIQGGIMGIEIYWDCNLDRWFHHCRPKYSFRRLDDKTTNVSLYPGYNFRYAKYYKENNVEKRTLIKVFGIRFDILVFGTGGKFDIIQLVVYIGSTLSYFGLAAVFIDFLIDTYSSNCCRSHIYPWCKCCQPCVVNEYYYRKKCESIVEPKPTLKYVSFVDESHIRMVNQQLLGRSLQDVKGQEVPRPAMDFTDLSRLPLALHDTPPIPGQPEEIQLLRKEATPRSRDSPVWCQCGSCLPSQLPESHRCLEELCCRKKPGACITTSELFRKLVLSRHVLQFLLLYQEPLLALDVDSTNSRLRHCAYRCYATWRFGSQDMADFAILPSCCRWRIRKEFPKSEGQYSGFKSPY

## 2′-3′-O-(4-benzoylbenzoyl)adenosine 5′-triphosphate [BzATP]
MDCK-P2X7 cells
  apoptosis: increased apoptosis
HeLa cells
  expression of P2X7 protein: significantly decreased
  expression of the P2X7-j protein: remained stable
[1]
  Fluo-4 signal (cytosolic calcium): increased acutely the Fluo-4 signal
[2]
  calcium response to BzATP: significantly smaller
[3]
  calcium response to BzATP: significantly smaller
HEK-293-P2X7 cells
  apoptosis: further increased this baseline apoptosis
[4]
  calcium response to BzATP: significantly smaller
[5]
  Fluo-4 signal (cytosolic calcium): increased acutely the Fluo-4 signal
[6]; HEK-293-P2X7-j cells
  growth of cells (cell number): no significant effect
[6]; HEK-293-P2X7 cells
  growth of cells (cell number): significantly decreased further the growth
[6]; wild-type HEK-293 cells
  growth of cells (cell number): no significant effect
[7]
  sustained cytosolic calcium increase: induced sustained Ci increase
